The NIST ThermoML archive (doi:10.1021/je900311v)

Assay: excess molar enthalpy (molar enthalpy of mixing); xn = mol fraction of the nth substance listed
Settings: 298.15 K, 101 kPa, Liquid, Calvet calorimetry

CCCCCCC(C)=O [2-octanone] + CCCCCCCCCCCCCC
Settings | excess molar enthalpy [kcal/mol]
x1 = 0.0383 | 0.0506
x1 = 0.0737 | 0.0908
x1 = 0.1066 | 0.123
x1 = 0.1373 | 0.15
x1 = 0.1659 | 0.173
x1 = 0.1927 | 0.191
x1 = 0.2226 | 0.209
x1 = 0.2504 | 0.223
x1 = 0.2763 | 0.235
x1 = 0.3005 | 0.244
x1 = 0.3231 | 0.252
x1 = 0.3443 | 0.258
x1 = 0.3678 | 0.263
x1 = 0.3898 | 0.267
x1 = 0.4102 | 0.27
x1 = 0.4151 | 0.273
x1 = 0.4243 | 0.274
x1 = 0.4339 | 0.275
x1 = 0.444 | 0.275
x1 = 0.4546 | 0.276
x1 = 0.4657 | 0.276
x1 = 0.4756 | 0.276
x1 = 0.486 | 0.276
x1 = 0.4968 | 0.275
x1 = 0.5082 | 0.275
x1 = 0.52 | 0.274
x1 = 0.5304 | 0.272
x1 = 0.5412 | 0.271
x1 = 0.5525 | 0.27
x1 = 0.5643 | 0.268
x1 = 0.5765 | 0.265
x1 = 0.5893 | 0.263
x1 = 0.6004 | 0.26
x1 = 0.612 | 0.257
x1 = 0.624 | 0.254
x1 = 0.6364 | 0.25
x1 = 0.6494 | 0.246
x1 = 0.6629 | 0.241
x1 = 0.6753 | 0.237
x1 = 0.6882 | 0.232
x1 = 0.7016 | 0.226
x1 = 0.7155 | 0.22
x1 = 0.73 | 0.213
x1 = 0.7451 | 0.205
x1 = 0.7709 | 0.191
x1 = 0.7844 | 0.183
x1 = 0.7985 | 0.175
x1 = 0.8131 | 0.165
x1 = 0.8282 | 0.155
x1 = 0.8413 | 0.146
x1 = 0.8549 | 0.136
x1 = 0.8689 | 0.125
x1 = 0.8834 | 0.113
x1 = 0.8983 | 0.101
x1 = 0.9138 | 0.0873
x1 = 0.9271 | 0.0752
x1 = 0.9409 | 0.0622
x1 = 0.955 | 0.0482
x1 = 0.9695 | 0.0332
x1 = 0.9845 | 0.017

CCCCCCC(C)=O [2-octanone] + CCCCCCCCCCCCCCCC
Settings | excess molar enthalpy [kcal/mol]
x1 = 0.0446 | 0.0598
x1 = 0.0854 | 0.107
x1 = 0.1228 | 0.144
x1 = 0.1573 | 0.175
x1 = 0.1926 | 0.202
x1 = 0.2251 | 0.223
x1 = 0.255 | 0.241
x1 = 0.2827 | 0.255
x1 = 0.3084 | 0.266
x1 = 0.3324 | 0.274
x1 = 0.3585 | 0.282
x1 = 0.3826 | 0.288
x1 = 0.405 | 0.292
x1 = 0.4258 | 0.295
x1 = 0.448 | 0.298
x1 = 0.4685 | 0.299
x1 = 0.4876 | 0.299
x1 = 0.4933 | 0.3
x1 = 0.5044 | 0.3
x1 = 0.5161 | 0.299
x1 = 0.5282 | 0.299
x1 = 0.541 | 0.298
x1 = 0.5519 | 0.297
x1 = 0.5633 | 0.295
x1 = 0.5751 | 0.294
x1 = 0.5874 | 0.291
x1 = 0.6003 | 0.289
x1 = 0.6138 | 0.286
x1 = 0.6257 | 0.283
x1 = 0.6508 | 0.275
x1 = 0.6642 | 0.27
x1 = 0.6781 | 0.265
x1 = 0.6926 | 0.259
x1 = 0.7048 | 0.254
x1 = 0.7174 | 0.248
x1 = 0.737 | 0.241
x1 = 0.7443 | 0.234
x1 = 0.7583 | 0.226
x1 = 0.7732 | 0.217
x1 = 0.7861 | 0.209
x1 = 0.7993 | 0.2
x1 = 0.8131 | 0.19
x1 = 0.8273 | 0.18
x1 = 0.84 | 0.17
x1 = 0.8531 | 0.159
x1 = 0.8666 | 0.148
x1 = 0.8805 | 0.135
x1 = 0.8949 | 0.122
x1 = 0.9075 | 0.109
x1 = 0.9204 | 0.0961
x1 = 0.9337 | 0.0819
x1 = 0.9473 | 0.0667
x1 = 0.9614 | 0.0499
x1 = 0.9739 | 0.0346
x1 = 0.9868 | 0.0177
